Data published in the Deep4Chem optical property database.
One block for each compound: values may come before it.

Assay: solvent given as SMILES

absorption maximum (in C1CCCCC1): 409 nm
absorption maximum (in CC#N): 407 nm
absorption maximum (in CO): 406 nm
absorption maximum (in ClCCl): 412 nm
SMILES: C(C#Cc1ccc2ccc3cccc4ccc1c2c34)#Cc1cccc2ccccc12

SMILES: CCN(CC)c1ccc2cc(/C=C/C3=CC(/C=C/c4cc5ccc(N(CC)CC)cc5oc4=O)=[O+][B-](F)(F)O3)c(=O)oc2c1
absorption maximum (in CC#N): 630 nm
absorption maximum (in CC(C)=O): 620 nm
absorption maximum (in CCOC(C)=O): 604 nm
absorption maximum (in CN(C)C=O): 641 nm
absorption maximum (in CS(C)=O): 652 nm
absorption maximum (in Cc1ccccc1): 598 nm
absorption maximum (in ClC(Cl)Cl): 615 nm
absorption maximum (in ClCCl): 625 nm

absorption maximum (in CO): 278 nm
SMILES: Cc1ccc2nnn(-c3c(C#N)c4c(N)ncnc4n3[C@H]3C[C@H](O)[C@@H](CO)O3)c2c1

SMILES: c1ccc(-c2nc(-c3ccccc3)nc(-c3ccc(-n4c5ccccc5c5cc6c(cc54)c4ccccc4n6-c4ccccc4)cc3)n2)cc1
absorption maximum (in Cc1ccccc1): 403 nm

SMILES: Cc1ccccc1C
absorption maximum (in C1CCCCC1): 258.26 nm

absorption maximum (in C1CCOC1): 398 nm
SMILES: C[Si]1(c2ccccc2)C(c2ccc3c4ccccc4n(-c4ccccc4)c3c2)=C(c2ccccc2)C(c2ccccc2)=C1c1ccc2c3ccccc3n(-c3ccccc3)c2c1

absorption maximum (in C1COCCO1): 336 nm
absorption maximum (in CC#N): 336 nm
absorption maximum (in CO): 340 nm
absorption maximum (in ClCCl): 343 nm
SMILES: COC(=O)CNC(=O)c1nc2c(N(C)C)nc(N(C)C)nc2n1Cc1ccccc1

absorption maximum (in ClC(Cl)Cl): 393 nm
SMILES: CCCCCCc1cc2c3cscc3c3cc(CCCCCC)sc3c2s1

SMILES: COCCC1=Cc2nc1ccc1[nH]c(c3nc(ccc4[nH]c2cc4CCOC)C(CCOC)=C3)c2c(C(=O)OC)c(C(=O)O)ccc12
absorption maximum (in Cc1ccccc1): 636 nm

absorption maximum (in ClCCl): 394 nm
SMILES: CC(C)[Si](C#Cc1ccc2c(C#C[Si](C(C)C)(C(C)C)C(C)C)cc3c4cc(C#C[Si](C(C)C)(C(C)C)C(C)C)ccc4c(C#C[Si](C(C)C)(C(C)C)C(C)C)cc3c2c1)(C(C)C)C(C)C

SMILES: Cc1cccc2[n+]1[B-](F)(F)n1c(c3cccc4cccc1c43)=N2
absorption maximum (in C1CCOC1): 472 nm
absorption maximum (in CC#N): 465 nm
absorption maximum (in CCCCCC): 464 nm
absorption maximum (in Cc1ccccc1): 475 nm
absorption maximum (in ClCCl): 441 nm

absorption maximum (in C1CCOC1): 282 nm
SMILES: Cc1ccc(-c2ccc(-c3ccc(C)cc3)c(/C(=C(/c3ccccc3)c3cc(-c4ccc(C)cc4)ccc3-c3ccc(C)cc3)c3ccccc3)c2)cc1

SMILES: CCOC(=O)COc1ccc(/C=C/C2=C3c4ccccc4C(c4[nH]c(C)cc4C)=[N+]3[B-](F)(F)n3c(/C=C/c4ccc(OCC(=O)OCC)cc4)cc(C)c32)cc1
absorption maximum (in C1CCOC1): 676 nm
absorption maximum (in CC#N): 667 nm
absorption maximum (in CCCCCC): 674 nm
absorption maximum (in CO): 668 nm
absorption maximum (in Cc1ccccc1): 683 nm
absorption maximum (in ClCCl): 676 nm

absorption maximum (in CCO): 475 nm
SMILES: CCOC(=O)/C(=C1\C(=O)C(O)=C1C=C1N(C)c2ccccc2C1(C)C)[N+](=O)[O-]

absorption maximum (in CCO): 360 nm
SMILES: C#Cc1ccc2cc(/C=C/C(=O)OCC)c(=O)oc2c1

absorption maximum (in C1CCCCC1): 586.5 nm
absorption maximum (in CCOC(C)=O): 581.5 nm
absorption maximum (in CO): 580 nm
SMILES: COC(=O)[C@H](Cc1ccc2oc3c(c2c1)=CC1=C(c2ccc(OC)cc2)c2cc4c5cc(C[C@H](NC(=O)OC(C)(C)C)C(=O)OC)ccc5oc4n2[B-](F)(F)[N+]=31)NC(=O)OC(C)(C)C

absorption maximum (in CCO): 571 nm
absorption maximum (in O): 574 nm
SMILES: O=C([O-])c1ccc(C(=O)[O-])c(C2=c3cc4c5c(c3Oc3c2cc2c6c3CCCN6CCC2)CCC[N+]=5CCC4)c1

absorption maximum (in ClCCl): 436 nm
SMILES: O=c1c2cccc3cccc(c32)c2nc3c4ccccc4c4ccccc4c3n12

absorption maximum (in ClC(Cl)Cl): 541 nm
SMILES: Oc1ccc(C2=[N+]3C(=C(c4ccccc4)c4cccn4[B-]3(F)F)C=C2)cc1

absorption maximum (in C1CCCCC1): 429.92 nm
absorption maximum (in C1CCOC1): 434.03 nm
absorption maximum (in CN(C)C=O): 438.98 nm
absorption maximum (in CO): 434.97 nm
absorption maximum (in ClC(Cl)Cl): 437.06 nm
absorption maximum (in c1ccccc1): 431.03 nm
SMILES: CC1(C)CCc2c(c3ccccc3c3nc4ccccc4nc23)O1

absorption maximum (in CC#N): 446 nm
SMILES: Cc1cc(C)c2nc3c(=O)n(C)c(=O)nc-3n(C)c2c1

absorption maximum (in ClC(Cl)Cl): 572 nm
SMILES: COC(=O)c1ccc(C2=C3C(C)=CC(C)=[N+]3[B-](F)(F)n3c(/C=C/c4c[nH]cn4)cc(C)c32)cc1

absorption maximum (in C1CCCCC1): 432 nm
absorption maximum (in CC#N): 445 nm
absorption maximum (in CCO): 448 nm
absorption maximum (in c1ccccc1): 445 nm
SMILES: CNc1cccc2c1C(=O)c1ccccc1-2

absorption maximum (in ClCCl): 388 nm
SMILES: CC(C)(C)NC(=O)c1ccc(C(=O)NC(C)(C)C)c2c1c1c3ccccc3c3ccccc3c1c1c3ccccc3c3ccccc3c21

SMILES: [C-]#[N+]c1ccc(-c2ccc(N(C)C)cc2)cc1
absorption maximum (in C1CCCCC1): 325 nm
absorption maximum (in C1CCOC1): 334 nm
absorption maximum (in C1COCCO1): 330 nm
absorption maximum (in CC#N): 333 nm
absorption maximum (in CC(C)=O): 327 nm
absorption maximum (in CCCCCC): 323 nm
absorption maximum (in CCOC(C)=O): 330 nm
absorption maximum (in CN(C)C=O): 339 nm
absorption maximum (in CO): 333 nm
absorption maximum (in CS(C)=O): 340 nm
absorption maximum (in Cc1ccccc1): 329 nm
absorption maximum (in ClC(Cl)Cl): 331 nm
absorption maximum (in ClCCl): 336 nm
absorption maximum (in O): 315 nm
absorption maximum (in c1ccncc1): 340 nm

absorption maximum (in CC#N): 370 nm
absorption maximum (in CCO): 325 nm
absorption maximum (in CN(C)C=O): 323 nm
absorption maximum (in CS(C)=O): 325 nm
absorption maximum (in ClCCl): 376 nm
SMILES: c1ccc(-c2csc(-c3ccncc3)n2)cc1

absorption maximum (in CC#N): 306 nm
SMILES: COc1cc(/C=C/c2ccccc2)cc(OC)c1

SMILES: CC(C)c1cc(C(C)C)c(-c2ccc(-n3c4ccccc4n4c5ccccc5nc34)nc2)c(C(C)C)c1
absorption maximum (in Cc1ccccc1): 345 nm

SMILES: c1ccc(-c2nc(-c3ccccc3)nc(-c3ccc(N4c5ccccc5C5(c6ccccc64)c4ccccc4N(c4ccc(-c6nc(-c7ccccc7)nc(-c7ccccc7)n6)cc4)c4ccccc45)cc3)n2)cc1
absorption maximum (in Cc1ccccc1): 400 nm

absorption maximum (in CC#N): 283 nm
absorption maximum (in CCO): 280 nm
absorption maximum (in CCOC(C)=O): 286 nm
absorption maximum (in CO): 278 nm
absorption maximum (in CS(C)=O): 285 nm
absorption maximum (in O): 269 nm
SMILES: Nc1cc[nH]c(=S)n1

absorption maximum (in CS(C)=O): 469 nm
absorption maximum (in ClCCl): 466 nm
SMILES: CCN(CC)c1ccc2c(c1)oc(=O)c1c(=O)oc3cc(Br)ccc3c12

absorption maximum (in CO): 374 nm
SMILES: O=C(O)CCCc1cc2ccc3cccc4ccc(c1)c2c34

absorption maximum (in ClC(Cl)Cl): 558 nm
SMILES: CCCCCCCCCCCCOc1cc2c3c(ccc4c5c(OC6CCC(C(C)(C)C)CC6)cc6c7c(ccc(c1c34)c75)C(=O)N(C1CCCCC1)C6=O)C(=O)N(C1CCCCC1)C2=O (configuration not stated)

SMILES: O=c1cc(COc2ccc(I)cc2)c2c(ccc3ccccc32)o1
absorption maximum (in C1CCOC1): 349 nm
absorption maximum (in C1COCCO1): 348 nm
absorption maximum (in CC#N): 348 nm
absorption maximum (in CC(C)=O): 349 nm
absorption maximum (in CCCCO): 350 nm
absorption maximum (in CCCO): 350 nm
absorption maximum (in CCO): 350 nm
absorption maximum (in CCOC(C)=O): 348 nm
absorption maximum (in CN(C)C=O): 350 nm
absorption maximum (in CO): 348 nm
absorption maximum (in Cc1ccccc1): 350 nm
absorption maximum (in ClCCl): 349 nm

absorption maximum (in C1CCOC1): 357 nm
SMILES: C1=Cc2ccccc2C(=Cc2ccc(-c3ccc(C=C4c5ccccc5-c5ccccc54)cc3)cc2)c2ccccc21

SMILES: CC(C)[Si](C#Cc1c2ccccc2c(C#Cc2c3ccccc3c(C#Cc3c4ccccc4c(C#Cc4c5ccccc5c(C#C[Si](C(C)C)(C(C)C)C(C)C)c5ccccc45)c4ccccc34)c3ccccc23)c2ccccc12)(C(C)C)C(C)C
absorption maximum (in Cc1ccccc1): 582 nm

SMILES: CC(C)[Si]1(C(C)C)c2cc(C=O)ccc2-c2ccc(N(C)C)cc21
absorption maximum (in C1CCCCC1): 390 nm
absorption maximum (in CC#N): 391 nm
absorption maximum (in CCO): 395 nm
absorption maximum (in CCOCC): 384 nm
absorption maximum (in CS(C)=O): 400 nm
absorption maximum (in ClCCl): 397 nm
absorption maximum (in c1ccccc1): 392 nm

absorption maximum (in C1CCOC1): 286 nm
SMILES: F[Si-](F)(c1ccccc1)(c1ccccc1)c1cccc2ccccc12

SMILES: O=C1CCCC2=C1CC1=C(CCCC1=O)N2NC(=O)c1ccc(O)cc1
absorption maximum (in CC#N): 368 nm
absorption maximum (in CC(C)=O): 368 nm
absorption maximum (in CCCCCO): 376 nm
absorption maximum (in CO): 376 nm
absorption maximum (in ClC(Cl)Cl): 368 nm
absorption maximum (in ClCCl): 372 nm

absorption maximum (in C1CCCCC1): 302 nm
SMILES: CC(C)(C)[Si](C)(C)c1ccc([Si](C)(C)C(C)(C)C)c2ccccc12

SMILES: O=C1OC(=O)C2=C1[Se][C@]13C2=C[C@H](c2ccccc21)c1ccccc13
absorption maximum (in ClCCl): 421 nm

absorption maximum (in CCCCCC): 544 nm
SMILES: CC(C)[Si](C#Cc1c2ccccc2c(C#C[Si](C(C)C)(C(C)C)C(C)C)c2nc3c(ccc4ccccc43)nc12)(C(C)C)C(C)C

absorption maximum (in ClC(Cl)Cl): 422 nm
SMILES: CCCC1(CCC)c2cc(C=C(C#Cc3ccccc3)C#Cc3ccccc3)ccc2-c2ccc(C=C(C#Cc3ccccc3)C#Cc3ccccc3)cc21

absorption maximum (in ClCCl): 345 nm
SMILES: N#Cc1ccc(C#Cc2ncc(-c3ccccc3)o2)cc1

SMILES: CC1=CC(C)=[N+]2C1=C(c1ccc(C(=O)OC3C[C@@H]4CC[C@]3(C)C4(C)C)cc1)c1c(C)cc(C)n1[B-]2(F)F (some centres not stated)
absorption maximum (in Cc1ccccc1): 506 nm

SMILES: C#CCNC1=C2C(C)=CC(C)=[N+]2[B-](F)(F)n2c(C)cc(C)c21
absorption maximum (in C1CCCCC1): 468.5 nm
absorption maximum (in CC(C)=O): 453 nm
absorption maximum (in CCOC(C)=O): 457 nm
absorption maximum (in CO): 453 nm
absorption maximum (in OCC(F)(F)F): 450.5 nm

absorption maximum (in ClCCl): 373 nm
SMILES: C(=C\c1ncccn1)/c1ccc(-c2ccc(N(c3ccccc3)c3ccccc3)cc2)cc1

SMILES: CC(C)(C)c1ccc2c(c1)c1cc(C(C)(C)C)ccc1n2-c1ccc(-n2c3ccc(C(C)(C)C)cc3c3cc(C(C)(C)C)ccc32)c(C(=O)c2ccncc2)c1
absorption maximum (in Cc1ccccc1): 418 nm

absorption maximum (in ClCCl): 445 nm
SMILES: Cc1ccc(/C=C/c2nc(-c3ccc([N+](=O)[O-])cc3)[nH]c2/C=C/c2ccc(C)cc2)cc1

absorption maximum (in CS(C)=O): 348 nm
SMILES: Cc1cccc(-c2nc3sc4ccccc4c3s2)c1

absorption maximum (in CC1CCCO1): 469 nm
SMILES: O=c1cc2cc(O)c3cccc4ccc(o1)c2c43

SMILES: COc1cc(/C=C/c2cc(OC)c(-c3nc(-c4ccccc4)c(-c4ccccc4)[nH]3)cc2OC)c(OC)cc1/C=C/c1cc(OC)c(-c2nc(-c3ccccc3)c(-c3ccccc3)[nH]2)cc1OC
absorption maximum (in C1CCOC1): 444 nm
absorption maximum (in CC#N): 441 nm
absorption maximum (in Cc1ccccc1): 447 nm
